Experiments:
[1] = Tacrolimus blood level by mass spectrometry; type: in vivo, mice
Description: Blood levels of tacrolimus were measured using mass spectrometry in a modification of a previously reported method. Donaldson et al., Meth. Mol. Biol. 603:479-487 (2010). Briefly, whole blood was collected in sodium EDTA-coated tubes (Terumo, Shibuya, Japan) and then analyzed using a Thermo Scientific Aria TLX-2 turbulent flow chromatograph (TFC) coupled to a TSQ Quantum Ultra triple quadrupole mass spectrometer (Thermo Scientific, Franklin, Mass.). The TurboFlow column used was a Cyclone P-50×0.5 mm while the analytical column was a Hypersil Gold C-18 column, 3×50 mm. To whole blood (50 μL) was added 200 μL of 0.2 mM ZnSO4 containing ascomycin as an internal standard. Following a 30 minute incubation and centrifugation, 50 μL of the supernatant was injected into the TFC system. The analytes were eluted through the column (0.75 mL min^−1) with a gradient of water and methanol solutions containing 10 mM ammonium formate and 0.1% formic acid. The analytical run time was 4.5 minutes. The between-day imprecision of the assay was determined at three concentrations over a period of 10 days. At concentrations of 3.3, 12.6 and 31.9 ng mL^−1 the coefficients of variation were of 9.8, 7.0 and 7.8%, respectively. The assay has a linear range from 0 to 40 ng mL^−1.

[2] = tested on: circulating blood T cells; assay: Flow cytometry of peripheral blood T cells; type: in vivo, mice
Description: Flow cytometry was performed on peripheral blood samples as previously reported. Zampell et al., PLoS ONE 7:e49940 (2012). Briefly, erythrocytes were lysed with RBC lysis buffer (Ebioscience, San Diego, Calif.) followed by staining with fluorophore-conjugated antibodies (CD45, CD3, and CD4; all from Biolegend, San Diego, Calif.) and analysis with a FACSCalibur flow cytometer (BD Biosciences, Franklin Lakes, N.J.) using FlowJo software (Tree Star, Ashland, Oreg.).

[3] = tested on: popliteal lymph node dissection (PLND) mouse model; assay: Popliteal lymph node dissection (PLND) hind limb model of lymphatic injury; conditions: 4 weeks after PLND
Description: To enable analysis of the lymphatic collecting vessel pumping capacity we utilized a previously described mouse popliteal lymphadenectomy model. […] Briefly, the hind limb collecting vessels and popliteal lymph nodes were identified and the lymph nodes were excised with the popliteal fat pad. Beginning 2 weeks after surgery, animals were randomized to treatment with either 0.1% topical tacrolimus or vehicle control (petroleum jelly) twice daily for 2 weeks.
Near infrared imaging (NIR) was performed using a modification of previously published results. […] Briefly, 15 μl (0.15 mg mL^−1) indocyanine green (ICG, Sigma-Aldrich, Saint Louis, Mo.) was injected intradermally in the web space of the dorsal hind limb and visualized using an EVOS EMCCD camera (Life Technologies, Carlsbad, Calif.) with a LED light source (CoolLED, Andover, United Kingdom). Static/video images were obtained using a Zeiss V12 Stereolumar microscope (Caliper Life Sciences, Hopkinton, Mass.) and lymphatic pumping function was analyzed using Fiji software (NIH, Bethesda, Md.) by identifying a region-of-interest over the dominant collecting vessel of the leg and subtracting the background fluorescent intensity plotted over time.
Immunohistochemical staining was performed using our published methods. […] Briefly, tissues were fixed in 4% paraformaldehyde at 4° C., decalcified in 5% sodium EDTA (Santa Cruz Biotechnology, Dallas, Tex.), embedded in paraffin, and sectioned at 5 micrometers. Cut sections were rehydrated and heat-mediated antigen unmasking was performed using 90° C. sodium citrate (Sigma-Aldrich). Non-specific binding was blocked with 2% BSA/20% animal serum. Tissues were incubated overnight with primary antibody at 4° C. Primary antibodies used for immunohistochemical stains included goat anti-mouse LYVE-1, rat anti-mouse CD45, rabbit anti-mouse CD4, and rat anti-mouse F4/80 (all from R&D, Minneapolis, Minn.), rabbit anti-mouse CD3 (from Dako, Carpinteria, Calif.), Cy3-conjugated mouse anti-αSMA (from Sigma-Aldrich), rabbit anti-human IFN-γ, rabbit anti-mouse TGF-β1, rabbit anti-mouse p-SMAD3, rabbit anti-mouse collagen I, rabbit-anti-mouse iNOS, and hamster-anti-mouse podoplanin, rabbit anti-mouse HMGB-1 and HSP-70 (all from ABCAM, Cambridge, Mass.).
Immunofluorescence staining was performed using AlexaFluor fluorophore-conjugated secondary antibodies (Life Technologies, Norwalk, Conn.). Images were scanned using Mirax imaging software (Carl Zeiss).

[4] = tested on: ear skin lymphatic vessels (LYVE-1+); assay: Ear punch wound model of cutaneous lymphangiogenesis; type: in vivo, mice; conditions: topical tacrolimus for 4 weeks, vs control ointment
Description: We also studied lymphangiogenesis during wound healing using an ear punch wound model and applying topical tacrolimus or control ointment for 4 weeks. […] To test the possibility of direct lymphangiogenic effects of tacrolimus, we applied tacrolimus to unwounded mouse ears for 4 weeks, and then performed whole mount confocal imaging of lymphatic vessels. We observed no increase in lymphangiogenesis in this uninjured, non-inflamed setting (FIG. 16). […] A corneal lymphangiogenesis assay was performed as previously reported. Cursiefen et al., Cornea 25:443-447 (2006). Briefly, 10-0 nylon sutures (Ethicon, Cincinnati, Ohio) were placed in the cornea at […]. Beginning immediately after suture placement, animals were treated with systemic tacrolimus or vehicle control daily for two weeks, followed by analysis using confocal microscopy (Leica Microsystems, Weitziar, Germany). […] Cutaneous lymphangiogenesis was assessed using an ear punch wound model as previously reported. […] Tile-scan images were obtained using a confocal microscope (Leica Microsystems, Weitziar, Germany) and skin within 400 μm of the wound edge was analyzed using Metamorph software (Molecular Devices, Sunnyvale, Calif.). Standardized (200 μm×200 μm) fields were analyzed for the number of branch points present per unit area by two blinded reviewers.

[5] = tested on: mouse tail model of lymphedema; assay: Mouse tail model of lymphedema (tail volume, histology, immunostaining, lymphoscintigraphy, NIR imaging, PCR, ELISA); type: in vivo, C57BL/6J mice
unwounded mouse ears = assay: Unwounded mouse ears, whole mount imaging of lymphatic vessels; type: in vivo, mice; conditions: tacrolimus applied to unwounded ears for 4 weeks
Description: We also studied lymphangiogenesis during wound healing using an ear punch wound model and applying topical tacrolimus or control ointment for 4 weeks. […] To test the possibility of direct lymphangiogenic effects of tacrolimus, we applied tacrolimus to unwounded mouse ears for 4 weeks, and then performed whole mount confocal imaging of lymphatic vessels. We observed no increase in lymphangiogenesis in this uninjured, non-inflamed setting (FIG. 16).

[6] = reference range; cited from earlier work
[7] = topical tacrolimus, vs vehicle treated controls
[8] = topical 0.1% tacrolimus twice daily for 2 weeks from 2 weeks after PLND, vs vehicle control
[9] = topical 0.1% tacrolimus, vs control
[10] = topical 0.1% tacrolimus, vs vehicle treated controls
[11] = topical 0.1% tacrolimus twice daily, early treatment (from 2 weeks after surgery for 4 weeks), vs vehicle control
[12] = topical 0.1% tacrolimus twice daily, late treatment (from 6 weeks after surgery for 3 weeks), vs vehicle control
[13] = topical 0.1% tacrolimus, early and late treatment, vs control
[14] = topical 0.1% tacrolimus, early treatment, qPCR 6 weeks after injury, vs control
[15] = topical 0.1% tacrolimus, early treatment, vs control
[16] = topical 0.1% tacrolimus, late treatment, vs control

In the case of `C=CC[C@@H]1/C=C(\C)C[C@H](C)C[C@H](OC)[C@H]2O[C@@](O)(C(=O)C(=O)N3CCCC[C@H]3C(=O)O[C@H](/C(C)=C/[C@@H]3CC[C@@H](O)[C@H](OC)C3)[C@H](C)[C@@H](O)CC1=O)[C@H](C)C[C@@H]2OC` [tacrolimus], the “whole blood tacrolimus levels” value ([1]; systemic tacrolimus 4 mg kg^−1 IP daily) is reported as “immunosuppressive concentrations”, the “whole blood tacrolimus level (systemic absorption), mean value” ([1]; topical tacrolimus) is reported as 1.06 ng/mL and the “blood T cells (CD3+)” value ([2]; systemic tacrolimus 4 mg kg^−1 IP daily, vs vehicle control) is reported as “significant reduction”. For the same compound, the “circulating CD4+ cells” value [2, 7] was “no changes”, the “circulating blood T cells (CD3+)” value [2, 7] was “no changes” and the “increase in collecting lymphatic packet frequency” value [3, 8] was greater than 2 fold. For the same compound, the “lymphatic leakiness and dermal back flow of ICG” value [3, 8] was “markedly decreased”, the “collateral lymphatics draining towards the inguinal lymph node” value ([3]; topical 0.1% tacrolimus, NIR imaging and IF staining, vs control) was “significantly more” and the “luminal area of hind limb collectors” value [3, 9] was “no differences”. The “number of alpha smooth muscles surrounding hind limb collecting lymphatics” value [3, 9] was “no differences”, the “reduction in perilymphatic CD4+ cells” value [3, 10] was 56% and the “reduction in perilymphatic CD45+ cells” value [3, 10] was 39%. The “reduction in perilymphatic F4/80+ cells” value [3, 10] was 36%, the “reduction in the number of perilymphatic iNOS-expressing cells” value [3, 10] was 42% and the “lymphatic vessel branching in ear skin adjacent to the wound” value [4] was “significantly increased”. The “lymphatic vessel density in ear skin adjacent to the wound” value [4] was “significantly increased”, the “decrease in soft tissue thickness” value [5, 11] was roughly 50% and the “decrease in tail volume” value [5, 11] was 95%. For the same compound, the soft tissue thickness [5, 12] was “highly effective in decreasing”, the tail volume [5, 12] was “highly effective in decreasing” and the “Scar index (picrosirius red, ratio of collagen I/III)” value [5, 13] was “markedly decreased”. For the same compound, the “cellular expression of phosphorylated SMAD3 (pSMAD-3)” value [5, 13] was “markedly decreased”, the “dermal and subcutaneous type I collagen deposition” value [5, 13] was “markedly decreased” and the “expression of TGF-β1 (immunofluorescence)” value [5, 13] was “markedly decreased”. The “NIR (ICG) imaging: transport across the tail wound” value ([5]; topical 0.1% tacrolimus, early treatment, 6 weeks after lymphatic ligation) was “rapid transport of interstitial fluid proximally across the tail wound”, the “IFN-γ mRNA expression in tail tissue” value [5, 14] was “significant decrease” and the “TGF-β1 mRNA expression in tail tissue” value [5, 14] was “significant decrease”. The “VEGF-C mRNA expression in tail tissue” value [5, 14] was “no differences”, the “increase in decay adjusted 99mTc uptake of the sacral lymph nodes” value [5, 15] was “more than 6 fold” and the “increase in newly formed lymphatic vessels (LYVE-1) bridging the zone of lymphatic injury” value [5, 15] was 189%. For the same compound, the “reduction of CD45+ cells (leukocytes) infiltrating dermis and subcutaneous fat” value [5, 15] was 56%, the “reduction of IFN-γ-producing cells” value [5, 15] was 54% and the “reduction of infiltrating CD3+ cells” value [5, 15] was 53%. The “reduction of infiltrating CD4+ cells” value [5, 15] was 78%, the “reduction of soft tissue infiltration of macrophages (F4/80+ cells)” value [5, 15] was 86% and the “increase in newly formed lymphatic vessels (LYVE-1) bridging the zone of lymphatic injury” value [5, 16] was 106%. For the same compound, the “reduction of CD45+ cells (leukocytes) infiltrating dermis and subcutaneous fat” value [5, 16] was 49%, the “reduction of IFN-γ-producing cells” value [5, 16] was 57% and the “reduction of infiltrating CD3+ cells” value [5, 16] was 49%. The “reduction of infiltrating CD4+ cells” value [5, 16] was 71%, the “reduction of soft tissue infiltration of macrophages (F4/80+ cells)” value [5, 16] was 73% and the “increase in 99mTc nodal uptake” value ([5]; topical 0.1% tacrolimus, late treatment, vs control, did not reach statistical significance) was 2 fold. For the same compound, the “lymphangiogenesis in uninjured, non-inflamed ear” value (unwounded mouse ears) was “no increase” and the “known therapeutic immunosuppressive levels achieved with systemic administration” value [6] was 5 to 15 ng/mL.

From patent US10251871B2, “Compositions and methods for treatment of edema” (Memorial Sloan Kettering Cancer Center, priority 2015, dated 2019)
